Experimental data published in ChEMBL document CHEMBL3120142 (J Med Chem, 2014).
The source made the active and inactive calls. No cut-off for these calls is given here.

System: Influenza A virus
Assay type: functional, organism-based
Conditions: A/Berlin/55/08(H1N1), MDCK

SMILES | Activity
CCC(CC)O[C@@H]1C=C(C(=O)O)C[C@H](N)[C@H]1NC(C)=O [OSELTAMIVIR CARBOXYLATE] | Active
CC(=O)N[C@H]1[C@H]([C@H](O)[C@H](O)CO)OC(C(=O)O)=C[C@@H]1NC(=N)N [ZANAMIVIR] | Active
